Here are results for two compounds from patent publication US10913709B2, “STAT3 inhibitor formulation” (priority 2017, dated 2021).

Structures are written as SMILES.

As a reminder, the solubility is the dissolved amount per volume that the medium holds.

One data set has as its system Ki67 expression. The data set can be described thus: Ki67 expression in normal mammary gland, immunohistochemical analysis. The following applies: two weeks of treatment.
The nature of data set [1]: Plasma stability in mouse plasma. The class given is in vitro ADME. How it is done:
An hour-by-hour analysis was then conducted, showing a marked decrease at ambient conditions (see Table 4). […] It should be noted that the time measurement for ambient is listed in hours (Table 4) compared with the time for the −20° C., which was measured in days (Table 5).

Data set [2] concerns DMBA-induced mammary cancer. Description: Chemoprevention study of DMBA-induced mammary cancer.
Description: The negative control group received vehicle (purified water) only. In order to accelerate tumor formation, the mice were also given 7,12-dimethylbenz[a]anthracene (DMBA) by gavage 1 time/week for 4 weeks beginning at 57 days of age. The study was terminated 4 months after DMBA exposure. During the treatment period, the body weights of the mice and the appearance of palpable mammary tumors were monitored on a weekly and twice-weekly basis, respectively.
Data set [3] can be described thus: Aqueous solubility in the presence of various bases (Example 1). The class given is physicochemical. The text has this:
(§1) The resulting mixtures were examined for both solubility and stability with the results being analyzed high-performance liquid chromatography (HPLC) with UV and mass spectroscopy detection.

The nature of data set [4]: Body weight and toxicity during the chemoprevention study. It is filed as in vivo, female MMTV/Neu mice. As to conditions: gavage 5 times/week, 500, 250, and 100 mg/kg BW/day, throughout the experiment.
Data set [5] is described as follows: Observation for toxicity and mortality in the PK study. The class given is in vivo. How it is done:
Mice were weighed within 72 hours of receipt and again on Study Day −1. Mice were observed once daily prior to day 0, and at least twice daily beginning on day 0 for 24 hours post-dose for morbidity and moribundity.

Data set [6] is described as follows: Stability in acetonitrile extract (post sample preparation). It is filed as physicochemical. As to conditions: 6 days. On the procedure: In particular, once the centrifugation was performed on the blood samples to provide the plasma samples for analysis, extraction into acetonitrile was done as quickly as possible (e.g., <1 hour).
For data set [7] the following is noted: cited from earlier work.
Data set [8] is described as follows: Stability in water in the presence of various bases, HPLC with UV and MS detection (Example 1). The class given is physicochemical.
Description: as §1

Description for Ki67 expression: Ki67 expression was assessed by immunohistochemical analysis of the normal ductal epithelium. Stained sections were scanned and quantitated using automated image analysis software.

With `Cc1ccc(S(=O)(=O)OCC(=O)Nc2ccc(C(=O)O)c(O)c2)cc1` [Compound 1], the results for the “inhibition of Ki67” value with Ki67 expression (250 mg/kg BW/day) and in the data set with Ki67 expression (500 mg/kg BW/day) were 85% and 83%, respectively. Moreover, the recovery at 0 h in data set [1] (ambient conditions, 0 hours) was 88.6%. For the same compound, the recovery at 1 h in data set [1] (ambient conditions, 1 hour) amounted to 61.2%. For the same compound, the recovery at 2 h in data set [1] (ambient conditions, 2 hours) came to 52.6%. In addition, in data set [1] (ambient conditions, 3 hours), the recovery at 3 h is 28.7%. In [1] (ambient conditions, 5 hours), this compound displayed a recovery at 5 h of 21.3%. Further, in data set [1] (ambient conditions, 6 hours), the recovery at 6 h was 15.8%. Moreover, the “plasma stability, daily assessment” value in [1] (samples assessed daily, no free acid observed after 1 day) was “stability was short”. This compound also yielded a recovery at 0 days in [1] (−20° C., 0 days) of 94.5%. In [1] (−20° C., 1 day), this compound yielded a recovery at 1 days of 76.6%. In [1] (−20° C., 2 days), the recovery at 2 days came to 65.7%. Also, the recovery at 3 days in [1] (−20° C., 3 days) stood at 58%. The recovery at 6 days in [1] (−20° C., 6 days) stood at 46.6%. In [2] (500 mg/kg BW/day by gavage), the “effect in preventing breast cancer” value is listed as “greatest effect”. Further, in data set [2] (all doses tested (500, 250, and 100 mg/kg BW/day by gavage)), the “onset of DMBA-induced breast cancer” value was “able to delay the onset”. For the same compound, the “incidence, multiplicity, and weights of mammary tumors compared to the vehicle-only control” value in [2] (gavage 5 times/week, 500, 250, and 100 mg/kg BW/day, DMBA-accelerated, 4 months) was “dose-dependent decrease”. Further, the solubility in water entry in data set [3] (water) is listed as “highly soluble in water”. In addition, the “weight loss or toxicity” value in data set [4] was “No weight loss or toxicity was observed”. In data set [5] (groups A-H: IV 50 mg/kg, PO 500, 250, 125 mg/kg, observed 24 hours post-dose), the “signs of toxicity post-dose” value is listed as “None of the mice in groups A-H demonstrated signs of toxicity”. In addition, the mortality entry in data set [5] (oral or IV administration, any of the doses administered) is given as “no mortality”. The “stability in an acetonitrile extract” value in data set [6] is “little/no degradation”.

With `Cc1ccc(S(=O)(=O)OCC(=O)Nc2ccc(C(=O)O)c(O)c2)cc1` [NSC-74859], in [7], the “solubility in water and ethanol” value is “poorly soluble in water and ethanol”. Moreover, the solubility in [3] (water with 1.1 molar equivalents of TRIZMA base, aqueous buffer, thermodynamic from solid, with 1.1 molar equivalents TRIZMA (2-amino-2-(hydroxymethyl)-1,3-propanediol), pH 7 water) was approximately 60 mg/mL. Besides, in data set [3] (with 1.1 molar equivalents of base in water, all bases examined (LiOH, NaOH, K2CO3, NaHCO3, TRIZMA)), the aqueous solubility result is reported as “good aqueous solubility”. Besides, the “degradation (loss of the tosylate group)” value in data set [8] (in stronger bases, such as sodium hydroxide, in water) is “Degradation was much more pronounced”. Moreover, in data set [8] (with TRIZMA, in water at room temperature, initial analysis), the “time the product remained stable” value is approximately 8 h.
